Experimental data as given in patent publication US8883827B2, “Azole derivatives as WTN pathway inhibitors” (Oslo University Hospital HF, priority 2009, dated 2014).

Experiments:
CHK1(h) = target: T1, CHK1(h) (Homo sapiens, UniProt O14757); experiment: Kinase screen; assay type: biochemical; details: 0.1% DMSO control = 100%
T1 construct: purchased Millipore (KinaseProfiler service)

β-catenin = experiment: Western blot and immunocytochemistry of β-catenin in SW480 cells; assay type: cell-based
Method: The effect of compound No. 1 on the presence of β-catenin in the nucleus or in the cytoplasm of colorectal cancer SW480 cells was investigated. SW480 cells contain activating mutations in the APC gene, leading to elevated levels of nuclear β-catenin and aberrant canonical Wnt signaling. A Western blot analysis was carried out using cell lysates from compound-treated SW480 cells and an antibody against the active form of β-catenin (non-phosphorylated N-terminal—ABC). In parallel, antibodies were used against total β-catenin (β-catenin), or β-catenin phosphorylated at the N-terminal (-β-catenin) which detects a degradable form of β-catenin.
SW480 cells were seeded and treated with compound No. 1 as described in Example 25. Cell lysates were immunoblotted using monoclonal active-β-catenin (ABC—Millipore), monoclonal β-catenin (β-catenin—BD Transduction Laboratories™), phospho-β-catenin (pβ-catenin—Cell Signaling Technology) and actin (Sigma). Primary antibodies were visualized with secondary HRP conjugated antibodies (Santa Cruz Biotechnology) and enhanced chemiluminescent substrate (Pierce® ECL Western Blotting Substrate, Thermo Scientific).
For immunocytochemical experiments, SW480 cells were seeded and treated as described in Example 24. After 72 hours, cells were fixed in 4% PFA in PBS for 10 minutes. Immunostaining was performed as described in standard protocols. Primary antibody (monoclonal β-catenin, BD Transduction Laboratories™) and secondary antibody (Alexa Fluor® 594, Invitrogen) were diluted 1:1000. The samples were imaged by using a Zeiss Axiovert 200M Fluorescence/Live cell Imaging Microscope with X40 magnification and the same exposure times. Cells were stained with DAPI (4′,6-diamidino-2-phenylindole) according to standard protocols.

PKCθ(h) = target: T2, PKCθ(h) (Homo sapiens, UniProt Q04759); experiment: Kinase screen; assay type: biochemical; details: 0.1% DMSO control = 100%
T2 construct: purchased Millipore (KinaseProfiler service)

TMDP(h) = target: T3, TMDP(h) (Homo sapiens, UniProt Q9UII6); experiment: Phosphatase screen; assay type: biochemical; details: 0.1% DMSO control = 100%
T3 construct: purchased Millipore (KinaseProfiler service)
T3 sequence (Q9UII6 whole entry): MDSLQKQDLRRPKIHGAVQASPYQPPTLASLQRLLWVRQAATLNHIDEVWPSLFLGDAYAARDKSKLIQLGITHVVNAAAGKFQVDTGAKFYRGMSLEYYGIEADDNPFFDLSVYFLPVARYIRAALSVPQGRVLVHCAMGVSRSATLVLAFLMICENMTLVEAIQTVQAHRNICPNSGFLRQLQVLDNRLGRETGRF

cKit(h) = target: T4, cKit(h) (Homo sapiens, UniProt P10721); experiment: Kinase screen; assay type: biochemical; details: 0.1% DMSO control = 100%
T4 construct: purchased Millipore (KinaseProfiler service)
T4 sequence (P10721 26-976): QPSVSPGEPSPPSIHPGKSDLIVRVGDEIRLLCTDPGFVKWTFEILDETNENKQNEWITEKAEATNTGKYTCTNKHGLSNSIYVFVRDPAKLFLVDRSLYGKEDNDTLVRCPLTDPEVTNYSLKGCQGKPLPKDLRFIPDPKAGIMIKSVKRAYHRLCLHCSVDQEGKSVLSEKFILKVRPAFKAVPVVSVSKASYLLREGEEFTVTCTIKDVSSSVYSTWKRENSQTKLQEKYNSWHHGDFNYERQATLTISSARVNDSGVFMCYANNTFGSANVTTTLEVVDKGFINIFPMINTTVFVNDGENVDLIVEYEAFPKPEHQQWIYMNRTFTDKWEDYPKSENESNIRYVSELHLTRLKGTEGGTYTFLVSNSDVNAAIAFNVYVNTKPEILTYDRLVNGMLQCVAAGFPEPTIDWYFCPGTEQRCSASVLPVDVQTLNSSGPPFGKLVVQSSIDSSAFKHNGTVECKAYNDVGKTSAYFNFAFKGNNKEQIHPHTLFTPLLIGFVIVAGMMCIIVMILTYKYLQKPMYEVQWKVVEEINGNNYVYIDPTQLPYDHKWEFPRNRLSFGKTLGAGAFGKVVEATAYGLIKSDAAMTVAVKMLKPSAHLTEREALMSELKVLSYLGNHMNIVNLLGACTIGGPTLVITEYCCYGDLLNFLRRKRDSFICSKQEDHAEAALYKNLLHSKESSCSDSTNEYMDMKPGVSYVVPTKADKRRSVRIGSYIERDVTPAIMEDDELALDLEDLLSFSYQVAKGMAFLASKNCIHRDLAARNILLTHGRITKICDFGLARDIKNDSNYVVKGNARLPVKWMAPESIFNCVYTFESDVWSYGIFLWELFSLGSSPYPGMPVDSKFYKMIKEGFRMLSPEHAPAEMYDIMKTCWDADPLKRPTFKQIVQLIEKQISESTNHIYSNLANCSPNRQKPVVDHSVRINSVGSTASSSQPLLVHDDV

TCPTP(h) = target: T5, TCPTP(h) (Homo sapiens, UniProt P17706); experiment: Phosphatase screen; assay type: biochemical; details: 0.1% DMSO control = 100%
T5 construct: purchased Millipore (KinaseProfiler service)

MAPKAP-K2(h) = target: T6, MAPKAP-K2(h) (Homo sapiens, UniProt P49137); experiment: Kinase screen; assay type: biochemical; details: 0.1% DMSO control = 100%
T6 construct: purchased Millipore (KinaseProfiler service)
T6 sequence (P49137 whole entry): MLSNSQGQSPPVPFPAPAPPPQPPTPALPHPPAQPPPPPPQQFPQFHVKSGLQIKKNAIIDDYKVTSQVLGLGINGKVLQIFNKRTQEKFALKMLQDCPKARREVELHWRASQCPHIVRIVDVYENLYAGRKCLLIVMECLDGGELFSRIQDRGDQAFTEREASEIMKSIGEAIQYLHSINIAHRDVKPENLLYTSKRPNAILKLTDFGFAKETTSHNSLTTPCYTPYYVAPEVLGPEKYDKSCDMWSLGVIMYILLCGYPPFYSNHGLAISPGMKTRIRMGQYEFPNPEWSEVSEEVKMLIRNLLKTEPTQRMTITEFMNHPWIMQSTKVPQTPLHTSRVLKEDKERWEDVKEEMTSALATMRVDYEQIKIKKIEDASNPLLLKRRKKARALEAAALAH

Abl(h) = target: T7, Abl(h) (Homo sapiens, UniProt P00519); experiment: Kinase screen; assay type: biochemical; details: 0.1% DMSO control = 100%
T7 construct: purchased Millipore (KinaseProfiler service)

canonical Wnt signaling = experiment: IC50 in STF/REN HEK293 cells, 50% Wnt3a-CM; assay type: cell-based; details: Homo sapiens; STF/REN HEK293, 50% Wnt3a-CM, 24 h
Outline: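 HEK293 cells carrying STF/REN reporters seeded at 80,000/well on poly-L-lysine; after 24 h, exposed 24 h to compound in 50% Wnt3a-conditioned medium. Firefly and Renilla luciferase measured by Dual-Glo; IC50 fitted to a Langmuir binding isotherm.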

HePTP(h) = target: T8, HePTP(h) (Homo sapiens, UniProt P35236); experiment: Phosphatase screen; assay type: biochemical; details: 0.1% DMSO control = 100%
T8 construct: purchased Millipore (KinaseProfiler service)

EphA5(h) = target: T9, EphA5(h) (Homo sapiens, UniProt P54756); experiment: Kinase screen; assay type: biochemical; details: 0.1% DMSO control = 100%
T9 construct: purchased Millipore (KinaseProfiler service)

eEF-2K(h) = target: T10, eEF-2K(h) (Homo sapiens, UniProt O00418); experiment: Kinase screen; assay type: biochemical; details: 0.1% DMSO control = 100%
T10 construct: purchased Millipore (KinaseProfiler service)

TAK1(h) = target: T11, TAK1(h) (Homo sapiens, UniProt O43318); experiment: Kinase screen; assay type: biochemical; details: 0.1% DMSO control = 100%
T11 construct: purchased Millipore (KinaseProfiler Service)
T11 sequence (O43318 1-303 limits assumed): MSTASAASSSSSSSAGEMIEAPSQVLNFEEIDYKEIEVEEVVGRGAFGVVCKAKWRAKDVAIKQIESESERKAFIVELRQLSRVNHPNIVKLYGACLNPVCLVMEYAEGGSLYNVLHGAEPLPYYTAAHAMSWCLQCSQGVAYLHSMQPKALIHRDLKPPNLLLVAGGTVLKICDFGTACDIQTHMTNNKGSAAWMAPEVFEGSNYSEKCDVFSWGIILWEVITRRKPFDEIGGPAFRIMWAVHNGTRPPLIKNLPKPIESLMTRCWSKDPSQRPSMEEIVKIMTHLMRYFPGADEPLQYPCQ

ALK(h) = target: T12, ALK(h) (Homo sapiens, UniProt Q9UM73); experiment: Kinase screen; assay type: biochemical; details: 0.1% DMSO control = 100%
T12 construct: purchased Millipore (KinaseProfiler service)
T12 sequence (Q9UM73 19-1620): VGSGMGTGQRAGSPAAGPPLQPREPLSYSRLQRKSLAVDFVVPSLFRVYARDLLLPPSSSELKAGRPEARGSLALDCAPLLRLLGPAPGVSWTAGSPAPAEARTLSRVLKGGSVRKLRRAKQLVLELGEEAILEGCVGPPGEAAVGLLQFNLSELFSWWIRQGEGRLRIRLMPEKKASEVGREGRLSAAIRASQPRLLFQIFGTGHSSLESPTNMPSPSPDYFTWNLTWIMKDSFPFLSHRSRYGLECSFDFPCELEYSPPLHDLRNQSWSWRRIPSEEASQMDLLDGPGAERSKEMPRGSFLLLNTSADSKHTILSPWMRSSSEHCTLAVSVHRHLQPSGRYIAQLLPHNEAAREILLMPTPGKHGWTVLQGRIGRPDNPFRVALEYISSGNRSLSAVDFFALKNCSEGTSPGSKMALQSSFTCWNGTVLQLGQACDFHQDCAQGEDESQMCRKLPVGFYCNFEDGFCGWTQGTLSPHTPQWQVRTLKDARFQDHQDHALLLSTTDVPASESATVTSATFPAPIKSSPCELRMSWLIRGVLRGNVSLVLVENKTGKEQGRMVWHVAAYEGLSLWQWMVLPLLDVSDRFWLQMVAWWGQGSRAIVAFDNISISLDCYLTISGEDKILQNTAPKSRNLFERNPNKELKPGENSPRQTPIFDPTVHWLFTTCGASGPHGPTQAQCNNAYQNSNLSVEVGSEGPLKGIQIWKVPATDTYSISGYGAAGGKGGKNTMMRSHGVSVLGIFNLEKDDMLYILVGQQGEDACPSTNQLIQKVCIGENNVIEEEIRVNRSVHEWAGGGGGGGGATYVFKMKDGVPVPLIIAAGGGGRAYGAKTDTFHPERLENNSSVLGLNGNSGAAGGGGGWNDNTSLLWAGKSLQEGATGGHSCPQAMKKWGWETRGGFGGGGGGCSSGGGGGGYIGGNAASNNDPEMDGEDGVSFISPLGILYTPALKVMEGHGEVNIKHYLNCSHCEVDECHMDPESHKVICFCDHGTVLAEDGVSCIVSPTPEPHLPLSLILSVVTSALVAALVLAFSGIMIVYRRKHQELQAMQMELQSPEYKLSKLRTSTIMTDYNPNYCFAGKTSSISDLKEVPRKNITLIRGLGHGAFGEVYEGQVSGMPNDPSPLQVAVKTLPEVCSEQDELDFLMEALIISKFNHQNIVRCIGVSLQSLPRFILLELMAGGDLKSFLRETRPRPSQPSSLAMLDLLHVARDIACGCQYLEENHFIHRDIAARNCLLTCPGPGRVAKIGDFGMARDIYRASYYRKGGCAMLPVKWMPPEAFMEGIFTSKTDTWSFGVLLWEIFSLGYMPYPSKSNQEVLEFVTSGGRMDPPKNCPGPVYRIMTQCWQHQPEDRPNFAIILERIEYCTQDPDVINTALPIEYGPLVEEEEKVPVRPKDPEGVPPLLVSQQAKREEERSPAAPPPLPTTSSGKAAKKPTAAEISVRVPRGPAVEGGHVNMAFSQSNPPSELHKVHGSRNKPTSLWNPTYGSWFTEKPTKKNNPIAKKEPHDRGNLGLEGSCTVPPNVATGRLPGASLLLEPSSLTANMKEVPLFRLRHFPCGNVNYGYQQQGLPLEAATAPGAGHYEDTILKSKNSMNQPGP

PDGFRβ(h) = target: T13, PDGFRβ(h) (Homo sapiens, UniProt P09619); experiment: Kinase screen; assay type: biochemical; details: 0.1% DMSO control = 100%
T13 construct: purchased Millipore (KinaseProfiler service)

Lyn(h) = target: T14, Lyn(h) (Homo sapiens, UniProt P07948); experiment: Kinase screen; assay type: biochemical; details: 0.1% DMSO control = 100%
T14 construct: purchased Millipore (KinaseProfiler service)
T14 sequence (P07948 whole entry): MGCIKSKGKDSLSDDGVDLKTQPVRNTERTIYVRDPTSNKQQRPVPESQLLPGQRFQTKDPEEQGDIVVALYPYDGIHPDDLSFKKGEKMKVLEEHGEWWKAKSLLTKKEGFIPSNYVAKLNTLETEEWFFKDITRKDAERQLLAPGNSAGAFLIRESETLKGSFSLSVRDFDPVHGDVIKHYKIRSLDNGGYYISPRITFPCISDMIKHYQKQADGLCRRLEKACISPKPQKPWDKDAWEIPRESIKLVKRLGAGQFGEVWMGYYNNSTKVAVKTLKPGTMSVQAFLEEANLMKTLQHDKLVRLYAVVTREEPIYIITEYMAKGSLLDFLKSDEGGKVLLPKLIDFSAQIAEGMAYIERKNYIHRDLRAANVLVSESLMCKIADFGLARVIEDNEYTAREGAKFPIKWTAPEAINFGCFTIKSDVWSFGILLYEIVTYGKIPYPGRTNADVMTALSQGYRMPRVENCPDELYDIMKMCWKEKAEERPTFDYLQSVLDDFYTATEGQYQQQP

p70S6K(h) = target: T15, p70S6K(h) (Homo sapiens, UniProt P23443); experiment: Kinase screen; assay type: biochemical; details: 0.1% DMSO control = 100%
T15 construct: purchased Millipore (KinaseProfiler service)

Mnk2(h) = target: T16, Mnk2(h) (Homo sapiens, UniProt Q9HBH9); experiment: Kinase screen; assay type: biochemical; details: 0.1% DMSO control = 100%
T16 construct: purchased Millipore (KinaseProfiler service)

CD45(h) = target: T17, CD45(h) (Homo sapiens, UniProt P08575); experiment: Phosphatase screen; assay type: biochemical; details: 0.1% DMSO control = 100%
T17 construct: purchased Millipore (KinaseProfiler service)

MLK1(h) = target: T18, MLK1(h) (Homo sapiens, UniProt P80192); experiment: Kinase screen; assay type: biochemical; details: 0.1% DMSO control = 100%
T18 construct: purchased Millipore (KinaseProfiler service)

SHP-1(h) = target: T19, SHP-1(h) (Homo sapiens, UniProt P29350); experiment: Phosphatase screen; assay type: biochemical; details: 0.1% DMSO control = 100%
T19 construct: purchased Millipore (KinaseProfiler service)
T19 sequence (P29350 whole entry): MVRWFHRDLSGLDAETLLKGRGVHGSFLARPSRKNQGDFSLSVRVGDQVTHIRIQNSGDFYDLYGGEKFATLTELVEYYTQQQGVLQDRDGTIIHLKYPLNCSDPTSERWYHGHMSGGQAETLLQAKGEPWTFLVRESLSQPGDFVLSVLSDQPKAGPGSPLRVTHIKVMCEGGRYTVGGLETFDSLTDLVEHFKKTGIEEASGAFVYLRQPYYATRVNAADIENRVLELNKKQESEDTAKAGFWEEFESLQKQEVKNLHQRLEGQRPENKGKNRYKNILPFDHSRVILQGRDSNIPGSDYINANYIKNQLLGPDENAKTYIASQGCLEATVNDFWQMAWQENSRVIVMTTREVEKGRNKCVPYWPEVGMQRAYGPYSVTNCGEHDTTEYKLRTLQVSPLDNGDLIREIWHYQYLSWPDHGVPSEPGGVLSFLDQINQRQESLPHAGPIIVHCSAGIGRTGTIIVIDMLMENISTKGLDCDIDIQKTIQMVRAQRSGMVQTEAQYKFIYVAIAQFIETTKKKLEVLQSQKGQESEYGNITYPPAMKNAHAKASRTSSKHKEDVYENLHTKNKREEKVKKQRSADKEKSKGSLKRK

SW480 cells = experiment: MTS cell growth assay (Example 27); assay type: cell-based; details: Homo sapiens, 72 h, read-out: IC50, reduction of proliferation
Method: Thus, the effect of compound No. 1 on cell growth was tested in SW480 cell lines using MTS analysis (MTS is the colorimetric substrate 3-(4,5-dimethylthiazol-2-yl)-5-(3-carboxymethoxyphenyl)-2-(4-sulfophenyl)-2H-tetrazolium).
3000 cells were seeded on 96 well plates in quadruplicates for each sample. The following day, cell culture medium was mixed with compound No. 1 in various concentrations or with 0.5% DMSO vehicle (control) and added to the wells.
Eight wells of seeded control cells, defining incubation time 0 (t0), were incubated with 20 μl substrate in 100 μl phenol-free D-MEM (Invitrogen) for 3 hours, as described in the CellTiter 96® AQueous Non-Radioactive Cell Proliferation Assay (MTS) protocol (Promega). The A490 value was recorded.
Samples were measured after 72 hours. The following formula was used to determine the single well relative A490 sample values: ((Sample A490−Average A490 to)×100)/(Average A490 0.5% DMSO control−Average A490 t0).

T1 sequence (O14757 whole entry): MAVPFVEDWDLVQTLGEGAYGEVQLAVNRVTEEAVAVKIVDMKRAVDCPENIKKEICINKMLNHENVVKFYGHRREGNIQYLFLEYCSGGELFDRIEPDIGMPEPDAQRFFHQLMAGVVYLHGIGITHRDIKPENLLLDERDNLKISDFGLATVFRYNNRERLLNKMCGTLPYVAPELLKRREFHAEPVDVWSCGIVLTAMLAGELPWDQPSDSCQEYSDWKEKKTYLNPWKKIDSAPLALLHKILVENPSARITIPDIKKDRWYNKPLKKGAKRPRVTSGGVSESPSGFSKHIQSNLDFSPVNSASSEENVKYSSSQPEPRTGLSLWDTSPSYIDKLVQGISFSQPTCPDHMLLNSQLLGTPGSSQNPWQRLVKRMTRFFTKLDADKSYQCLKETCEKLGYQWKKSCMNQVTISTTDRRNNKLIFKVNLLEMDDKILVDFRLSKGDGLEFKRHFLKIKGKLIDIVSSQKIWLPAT

SMILES: COc1ccc(-n2c(SCc3nc(-c4ccc(C)cc4)no3)nnc2-c2ccncc2)cc1 [Compound 1]
- activity at 10 µM (CHK1(h)): 106%
- active β-catenin (non-phosphorylated, ABC) in Western blot (β-catenin; SW480, 1 μM, 72 hours): barely detectable
- overall levels of total β-catenin (Western blot) (β-catenin; SW480, 72-hour exposure): reduced
- nuclear total β-catenin (immunofluorescence) (β-catenin; SW480, 72-hour incubation): Reduction
- level of degradable pβ-catenin (Western blot) (β-catenin; SW480, 24 hours after adding compound): temporarily increased
- active β-catenin (ABC) level (Western blot) (β-catenin; SW480, 72 h, all concentrations): even stronger reduction
- activity at 10 µM (PKCθ(h)): 109%
- activity at 10 µM (TMDP(h)): 97%
- activity at 10 µM (cKit(h)): 116%
- activity at 10 µM (TCPTP(h)): 100%
- activity at 10 µM (MAPKAP-K2(h)): 85%
- activity at 10 µM (Abl(h)): 93%
- IC50 (canonical Wnt signaling): 1.01 µM
- activity at 10 µM (HePTP(h)): 106%
- activity at 10 µM (EphA5(h)): 99%
- activity at 10 µM (eEF-2K(h)): 117%
- activity at 10 µM (TAK1(h)): 104%
- activity at 10 µM (ALK(h)): 91%
- activity at 10 µM (PDGFRβ(h)): 129%
- activity at 10 µM (Lyn(h)): 109%
- activity at 10 µM (p70S6K(h)): 113%
- activity at 10 µM (Mnk2(h)): 108%
- activity at 10 µM (CD45(h)): 108%
- activity at 10 µM (MLK1(h)): 99%
- activity at 10 µM (SHP-1(h)): 102%
- IC50 (SW480 cells): ~11.5 µM
